Assay results reported in patent publication US12234288B2, “Immunogenic arginase 2 polypeptides” (IO Biotech ApS, priority 2018, dated 2025).

Test system: ARG2-specific T cells
Experiment: ARG2-specific CD4+ T cell culture: IFNy ELISPOT and intracellular cytokine staining toward peptide or target cells
Assay type: cell-based, human
Conditions: for recognition of peptide-pulsed cells by ARG2-specific T cells: IFNy ELISPOT, FIG. 17A; for specificity of the ARG2-specific T cell culture to peptide: intracellular cytokine staining for TNFα and IFNy and IFNy ELISPOT, FIG. 16A/B
Experimental: ELISPOT assays with ARG2-specific T cells (effector cells) and various immune or cancer cells as target cells (target cells) were setup by placing 1-5×10^4 effector cells (as indicated) and 1-2.5×10^4 target cells (as indicated) in the bottom of an ELISPOT well. Peptide pulsing of target cells were performed by incubation of cells with 20 μM peptide for lhr followed by two washes to remove unbound peptide. These cells served as positive control. Effector cells plated without target cells served as negative control. All conditions were setup in triplicates or quadruplicates.
Intracellular staining of cell cultures was performed on PBMCs after one week of ARG2-derived peptide stimulation in vitro. For the assay, 9×10^5 PBMCs were re-stimulated with ARG2-derived peptides (or incubated with no peptide as a control) for 5 hours in the presence of BD GolgiPlug™ (added after the first hour of peptide stimulation). Stimulated cells were stained with fluorescently labeled antibodies for surface markers (CD3, CD4, CD8) and thereafter permeabilized by using Fixation/Permeabilization and Permeabilization Buffer (eBioscience, cat. 00-{5123-43), according to manufacturer's instructions. Permeabilized cells were then stained with fluorochrome-labeled antibodies for IFNγ and TNFα. Flow cytometry analysis was performed on a FACSCanto™ II (BD Biosciences). Antibodies used: IFNγ-APC, TNFα-BV421, CD4-PerCP, CD8-FITC, CD3-APC-H7, CD4-FITC, CD8-PerCP, and dead cells stain-FVS510 (all from BD Biosciences) according to manufacturer's instructions. For intracellular cytokine staining to detect cytokine production of ARG2-specific T cells in response to target cells, 5×10^5 ARG2 specific cells were incubated with 2.5×10^5 target cells for 5 hours with GolgiPlug™ added after the first hour.
The ARG2-specific T cell culture was established by initial stimulation of PMBCs from a prostate cancer patient with irradiated ARG2-1 loaded autologous mature dendritic cells. The following day IL-12 (20 U/ml) and IL-7 (40 U/ml) was added. PBMCs were restimulated every 8 days with ARG2-1 peptide loaded autologous DCs followed by addition of IL-2 (120 U/ml) the next day. ARG2-specific T cells were enriched using IFNy enrichment kit (MiltenyiBiotec) after 4 stimulations. Cells were expanded and ARG2-specific T cells were further enriched using CD4+ enrichment kit (MiltenyiBiotec).
For mRNA, DCs or cancer cells were transfected with ARG1-DC-LAMP mRNA, ARG2-DC-LAMP mRNA or control mRNA encoding eGFP using electroporation parameters as previously described. Briefly, cells were washed twice in Opti-MEM medium (Thermo Scientific) and adjusted to a final cell concentration of 9-12×10^6 cells/ml. 350 μl cell suspension was preincubated on ice for 5 minutes before addition of 10 μg mRNA. The cell suspension was then quickly transferred into a 2-mm (cancer cells) or 4-mm (DCs) gap electroporation cuvette and electroporated (ref: OM paper). After electroporation, cells were quickly transferred to a dish with pre-warmed medium and incubated in humidified atmosphere with 5% CO2 before use for different experimental analysis. mRNA transfected cells were rested for 1 hr before they were setup in ELISPOT assay or rested overnight before set up in intracellular cytokine staining assay. Electroporation efficiency was determined 24 hours post transfection by FACS analysis of the GFP transfected cells. […]

Row | Sequence | recognition of peptide-pulsed cells by ARG2-specific T cells (MONO-MAC-1 cells) | recognition of peptide-pulsed cells by ARG2-specific T cells (OCI-AML2 cells) | recognition of peptide-pulsed cells by ARG2-specific T cells (THP-1 cells) | specificity of the ARG2-specific T cell culture to peptide
1 | LQTRVHSILKKSVHSVAVIG (listed as Homo sapiens) [ARG2_1, polypeptide derived from human Arginase2, aa11-30] | effectively recognized | effectively recognized | effectively recognized | highly specific
2 | SLRGSLSRLLQTRVHSILKKSVHSVAVIGAPFS (listed as Homo sapiens) [A2L2, long ARG2 peptide, aa2-34, 33-mer] |  |  |  | highly specific
